# Data from publication PMC3726442 (PLoS ONE, 2013).
# Assay: Plasma concentrations of tamoxifen and its metabolites in breast cancer patients on tamoxifen, by HPLC-tandem mass spectrometry
# Description: One hundred and thirty five Caucasian patients of Spanish descent recently diagnosed with BC were recruited from the center Fundación Tejerina-Centro de Patología de la Mama (Madrid). Premenopausal and postmenopausal women were enrolled when started on TAM as standard adjuvant therapy after undergoing primary surgery, radiation and adjuvant chemotherapy. Patients were excluded if they had started TAM therapy simultaneously with either adjuvant chemotherapy or adjuvant radiation therapy (or both) or if they were undergoing other adjuvant endocrine therapies. Patients who were pregnant or breast-feeding were also excluded from the study. […] Blood samples were collected within 3 to 60 months of initiating TAM treatment.
# Venous blood was collected from all 135 subjects before taking their daily 20- mg dose of TAM. Ten milliliters of heparin plasma were separated by centrifugation and immediately stored at −20°C until analysis. In addition, one milliliter of an EDTA blood sample was taken for subsequent DNA extraction and genotyping. DNA was isolated from peripheral leukocytes using a QIAamp DNA Blood Mini Kit® (Qiagen, Madrid, Spain) according to the manufacturer’s instructions. The DNA concentration was determined and adjusted to 2–20 ng/ µL.
# TAM and its metabolites were separated and quantified by high-pressure liquid chromatography-tandem mass spectrometry using an Agilent HPLC 1200 system. HPLC experiments were performed using a binary pump G1312A, a G1316A column oven, G1379B degasser and an automatic injector H-ALS G1367B. Mobile phase A and phase B consisted of 0.1% formic acid in water and acetonitrile, respectively. Mobile phases A and B were pumped through a ZORBAX Eclipse XDB-C18 column (150 mm×2.1 mm I.D., 3.5 µm, Agilent USA) at a flow rate of 0.2 mL/min using the gradient shown in Table 1. Separation was conducted at 30°C. 15- µL aliquots were injected and the autosampler needle was rinsed in acetonitrile/water solution (1∶1). The total run time was 20 min. During the first 4.0 and last 2.0 min, the eluate was removed using a divert valve to avoid endogenous compounds entering the mass spectrometer.
# As a detector, we used an A 6410 Triple Quadrupole mass spectrometer (Agilent Technologies, USA) equipped with a heated electrospray ionization source (Thermo Fisher Scientific, Waltham, MA, USA) operating in positive ion mode. For quantification, multiple reaction monitoring (MRM) chromatograms were acquired using Mass Hunter software version B.01.04 (Agilent Technologies, USA). Positive ions were created at atmospheric pressure. Quadrupoles operated at unit resolution (0.7 Da).
# A 300- µL volume of 1% formic acid in acetonitrile containing internal standards was added to a 100- µL serum aliquot. After vortexing and centrifugation, the clear supernatant was transferred to a HybridSPE column (Supelco) and the eluents stored at 2–8°C until analysis. Samples were analyzed in triplicate.
# Descriptive statistics were calculated using standard methods. Metabolic ratios were calculated as the concentration of substrate/concentration of metabolite. The non-normal distribution of data was confirmed by the Kolmogorov-Smirnov test. Levels of TAM, metabolites and ratios between genotype groups were compared using Wilcoxon-Mann-Whitney or Kruskal-Wallis tests. All statistical tests (two-sided) were performed using SPSS software (version 18.0 SPSS, Chicago, IL). Significance was set at a p<0.05.
structure (smiles),measurement,setting,value
"CC/C(=C(\c1ccccc1)c1ccc(OCCN(C)C)cc1)c1ccccc1 [Tamoxifen, reference compound]","plasma concentration, mean ±SD","genotype CYP2D6 I/I, n = 1",130.54 ± 0.00 ng/mL
same,"plasma concentration, median","genotype CYP2D6 I/I, n = 1",130.54 ng/mL
same,"plasma concentration, range","genotype CYP2D6 I/I, n = 1",(130.54–130.54) ng/mL
same,"plasma concentration, range","genotype CYP2D6 I/P, n = 8",(88.08–289.96) ng/mL
same,"plasma concentration, mean ±SD","genotype CYP2D6 P/P, n = 2",278.43 ± 132.13 ng/mL
same,"plasma concentration, median","genotype CYP2D6 P/P, n = 2",278.43 ng/mL
same,"plasma concentration, range","genotype CYP2D6 P/P, n = 2",(185.00–371.83) ng/mL
same,"plasma concentration, mean ±SD","genotype CYP2D6 wt/I, n = 4",208.48 ± 66.06 ng/mL
same,"plasma concentration, range","genotype CYP2D6 wt/I, n = 4",(151.94–302.03) ng/mL
same,"plasma concentration, mean ±SD","genotype CYP2D6 wt/P, n = 26",209.57 ± 121.53 ng/mL
same,"plasma concentration, range","genotype CYP2D6 wt/P, n = 26",(89.79–576.23) ng/mL
same,"plasma concentration, mean ±SD","genotype CYP2D6 wt/wt, n = 78",203.05 ± 80.53 ng/mL
same,"plasma concentration, range","genotype CYP2D6 wt/wt, n = 78",(77.10–573.83) ng/mL
same,"plasma concentration, range","genotype CYP2D6 wtxN/P, n = 2",(102.91–264.41) ng/mL
same,"plasma concentration, mean ±SD","genotype CYP3A4 wt/*1B, n = 3",260.69 ± 136.19 ng/mL
same,"plasma concentration, median","genotype CYP3A4 wt/*1B, n = 3",261.00 ng/mL
same,"plasma concentration, range","genotype CYP3A4 wt/*1B, n = 3",(124.35–396.73) ng/mL
same,"plasma concentration, mean ±SD","genotype CYP3A4 wt/*3, n = 2",212.83 ± 68.55 ng/mL
same,"plasma concentration, median","genotype CYP3A4 wt/*3, n = 2",212.83 ng/mL
same,"plasma concentration, range","genotype CYP3A4 wt/*3, n = 2",(164.35–261.30) ng/mL
same,"plasma concentration, mean ±SD","genotype CYP3A4 wt/*17, n = 9",230.28 ± 153.17 ng/mL
same,"plasma concentration, range","genotype CYP3A4 wt/*17, n = 9",(88.08–573.83) ng/mL
same,"plasma concentration, mean ±SD","genotype CYP3A4 wt/wt, n = 107",198.93 ± 89.59 ng/mL
same,"plasma concentration, range","genotype CYP3A4 wt/wt, n = 107",(77.10–576.23) ng/mL
same,"plasma concentration, mean ±SD","genotype CYP3A5 *3/*3, n = 117",204.98 ± 96.33 ng/mL
same,"plasma concentration, range","genotype CYP3A5 *3/*3, n = 117",(77.10–576.23) ng/mL
same,"plasma concentration, mean ±SD","genotype CYP3A5 wt/*3, n = 6",164.16 ± 51.72 ng/mL
same,"plasma concentration, median","genotype CYP3A5 wt/*3, n = 6",160.17 ng/mL
same,"plasma concentration, range","genotype CYP3A5 wt/*3, n = 6",(112.43–235.19) ng/mL
same,"plasma concentration, mean ±SD","genotype SULT1A1 *2/*2, n = 15",205.87 ± 101.52 ng/mL
same,"plasma concentration, median","genotype SULT1A1 *2/*2, n = 15",161.90 ng/mL
same,"plasma concentration, range","genotype SULT1A1 *2/*2, n = 15",(102.43–396.73) ng/mL
same,"plasma concentration, mean ±SD","genotype SULT1A1 wt/*2, n = 46",204.84 ± 107.12 ng/mL
same,"plasma concentration, range","genotype SULT1A1 wt/*2, n = 46",(77.10–573.83) ng/mL
same,"plasma concentration, mean ±SD","genotype SULT1A1 wt/wt, n = 60",200.92 ± 86.14 ng/mL
same,"plasma concentration, range","genotype SULT1A1 wt/wt, n = 60",(88.08–576.23) ng/mL
same,"plasma concentration, range","genotype SULT1A2 *2/*2, n = 16",(95.67–396.73) ng/mL
same,"plasma concentration, mean ±SD","genotype SULT1A2 *2/*3, n = 13",222.50 ± 93.29 ng/mL
same,"plasma concentration, median","genotype SULT1A2 *2/*3, n = 13",240.78 ng/mL
same,"plasma concentration, range","genotype SULT1A2 *2/*3, n = 13",(112.43–371.37) ng/mL
same,"plasma concentration, median","genotype SULT1A2 *3/*3, n = 5",164.35 ng/mL
same,"plasma concentration, range","genotype SULT1A2 *3/*3, n = 5",(122.20–302.03) ng/mL
same,"plasma concentration, mean ±SD","genotype SULT1A2 wt/*2, n = 33",227.33 ± 131.55 ng/mL
same,"plasma concentration, range","genotype SULT1A2 wt/*2, n = 33",(88.08–576.23) ng/mL
same,"plasma concentration, range","genotype SULT1A2 wt/*3, n = 16",(89.79–378.32) ng/mL
same,"plasma concentration, range","genotype SULT1A2 wt/wt, n = 38",(77.10–375.04) ng/mL
same,"plasma concentration, mean ±SD","genotype SULT1E1 *2/*2, n = 5",232.36 ± 83.23 ng/mL
same,"plasma concentration, median","genotype SULT1E1 *2/*2, n = 5",202.74 ng/mL
same,"plasma concentration, range","genotype SULT1E1 *2/*2, n = 5",(166.20–375.04) ng/mL
same,"plasma concentration, mean ±SD","genotype SULT1E1 wt/*2, n = 28",200.49 ± 77.50 ng/mL
same,"plasma concentration, range","genotype SULT1E1 wt/*2, n = 28",(77.10–368.73) ng/mL
same,"plasma concentration, mean ±SD","genotype SULT1E1 wt/wt, n = 88",202.17 ± 101.97 ng/mL
same,"plasma concentration, range","genotype SULT1E1 wt/wt, n = 88",(89.79–576.23) ng/mL
"CC/C(=C(\c1ccccc1)c1ccc(OCC[N+](C)(C)[O-])cc1)c1ccccc1 [Tamoxifen-N-oxide, tamoxifen-N-oxide]",mean plasma concentration (±SD),"all samples analyzed, n = 125, before daily 20 mg TAM dose",50.88 ± 23.09 ng/mL
same,"plasma concentration, mean ±SD","genotype CYP2D6 wt/P, n = 26",54.04 ± 25.63 ng/mL
same,"plasma concentration, mean ±SD","genotype SULT1A1 *2/*2, n = 15",56.02 ± 24.50 ng/mL
same,"plasma concentration, median","genotype SULT1A1 *2/*2, n = 15",59.27 ng/mL
same,"plasma concentration, range","genotype SULT1A1 *2/*2, n = 15",(15.69–99.37) ng/mL
same,"plasma concentration, mean ±SD","genotype SULT1A1 wt/*2, n = 46",51.02 ± 27.88 ng/mL
same,"plasma concentration, median","genotype SULT1A1 wt/*2, n = 46",41.84 ng/mL
same,"plasma concentration, range","genotype SULT1A1 wt/*2, n = 46",(17.43–142.97) ng/mL
same,"plasma concentration, mean ±SD","genotype SULT1A1 wt/wt, n = 60",48.69 ± 18.93 ng/mL
same,"plasma concentration, range","genotype SULT1A1 wt/wt, n = 60",(15.69–106.35) ng/mL
same,"plasma concentration, mean ±SD","genotype SULT1A2 *2/*2, n = 16",47.18 ± 20.97 ng/mL
same,"plasma concentration, median","genotype SULT1A2 *2/*2, n = 16",50.56 ng/mL
same,"plasma concentration, range","genotype SULT1A2 *2/*2, n = 16",(15.69–81.94) ng/mL
same,"plasma concentration, mean ±SD","genotype SULT1A2 *2/*3, n = 13",46.94 ± 17.33 ng/mL
same,"plasma concentration, range","genotype SULT1A2 *2/*3, n = 13",(17.43–90.66) ng/mL
same,"plasma concentration, mean ±SD","genotype SULT1A2 *3/*3, n = 5",38.35 ± 10.17 ng/mL
same,"plasma concentration, range","genotype SULT1A2 *3/*3, n = 5",(26.15–50.56) ng/mL
same,"plasma concentration, mean ±SD","genotype SULT1A2 wt/*2, n = 33",60.87 ± 31.96 ng/mL
same,"plasma concentration, median","genotype SULT1A2 wt/*2, n = 33",54.04 ng/mL
same,"plasma concentration, range","genotype SULT1A2 wt/*2, n = 33",(20.53–142.97) ng/mL
same,"plasma concentration, mean ±SD","genotype SULT1A2 wt/*3, n = 16",47.29 ± 17.70 ng/mL
same,"plasma concentration, median","genotype SULT1A2 wt/*3, n = 16",46.20 ng/mL
same,"plasma concentration, range","genotype SULT1A2 wt/*3, n = 16",(19.18–83.68) ng/mL
same,"plasma concentration, mean ±SD","genotype SULT1A2 wt/wt, n = 38",47.65 ± 19.19 ng/mL
same,"plasma concentration, median","genotype SULT1A2 wt/wt, n = 38",42.71 ng/mL
same,"plasma concentration, range","genotype SULT1A2 wt/wt, n = 38",(15.69–99.37) ng/mL
same,"plasma concentration, mean ±SD","genotype SULT1E1 *2/*2, n = 5",49.86 ± 8.94 ng/mL
same,"plasma concentration, mean ±SD","genotype SULT1E1 wt/*2, n = 28",47.65 ± 19.38 ng/mL
same,"plasma concentration, median","genotype SULT1E1 wt/*2, n = 28",47.94 ng/mL
same,"plasma concentration, range","genotype SULT1E1 wt/*2, n = 28",(20.53–90.66) ng/mL
same,"plasma concentration, mean ±SD","genotype SULT1E1 wt/wt, n = 88",51.48 ± 25.13 ng/mL
same,"plasma concentration, range","genotype SULT1E1 wt/wt, n = 88",(15.69–142.97) ng/mL
